Data taken from article PMC12362585, “Development and Preclinical Characterization of [^18F]H3-2406 and [^18F]H3-2407 for Positron Emission Tomography Imaging of the Histamine Subtype‑3 Receptor” (Journal of Medicinal Chemistry, 2025).

Legend:
[1] = In vitro stability in serum, humans; format: in vitro ADME; conditions: human serum, 37 °C, 30, 60 and 90 min
Procedure: To assess the stability of [^18F]3, in vitro radioactivity analyses were conducted following 30-, 60- and 90 min coincubation of the radioligand in the serum and liver microsomes from mice, nonhuman primates (NHPs), and humans (Figure ).
Serum from mice, NHPs, and humans were warmed to room temperature, 15 MBq of [^18F]3 was added to 0.4 mL of each species’ serum. The mixtures were incubated at 37 °C and 0.1 mL of mixture was transferred into 0.2 mL cold acetonitrile at 30, 60, and 90 min. The samples were vortexed for 15 s and then centrifuged at 10,000g for 5 min. The supernatant was analyzed using analytical HPLC (Agilent 1100 series HPLC system on Phenomenex Luna C-18 column (4.6 × 150 mm), mobile phase 30% CH3CN/0.1% TFA in water, flow:1 mL/min). For microsomes studies, a mixture of microsomes (0.5 mg/mL), [^18F]3 (15 MBq), 0.35 mL of PBS, 0.05 mL of NADPH regenerating system A, and 0.01 mL of NADPH regenerating system B were incubated at 37 °C. The subsequent steps followed the same procedure as described above.

H3R = molecular target: T1, H3R (Mus musculus, UniProt P58406); experiment: Dynamic PET imaging in CD1 mice, baseline and H3R antagonist blocking; format: in vivo; conditions: for V T, cerebellum / V T, cortex / V T, hippocampus / V T, striatum / V T, thalamus / V T, whole brain: Logan analysis, IDIF
T1 construct: dynamic PET imaging studies were conducted in CD1 mice; from tissue; host or cells: brain of living CD1 mice
T1 sequence (P58406 whole entry): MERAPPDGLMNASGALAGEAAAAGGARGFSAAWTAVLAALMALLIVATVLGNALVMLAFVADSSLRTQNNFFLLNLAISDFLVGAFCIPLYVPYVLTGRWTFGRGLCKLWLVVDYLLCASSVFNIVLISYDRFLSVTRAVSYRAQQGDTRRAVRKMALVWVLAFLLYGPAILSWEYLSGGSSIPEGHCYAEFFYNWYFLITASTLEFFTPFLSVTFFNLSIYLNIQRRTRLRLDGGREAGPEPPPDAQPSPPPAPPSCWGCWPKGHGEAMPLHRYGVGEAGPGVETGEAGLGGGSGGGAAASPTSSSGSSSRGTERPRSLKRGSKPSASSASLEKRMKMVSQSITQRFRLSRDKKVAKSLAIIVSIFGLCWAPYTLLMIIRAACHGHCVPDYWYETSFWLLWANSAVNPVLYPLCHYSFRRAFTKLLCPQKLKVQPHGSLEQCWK
Procedure: To elucidate the in vivo brain uptake of [^18F]3 and [^18F]4, dynamic PET imaging studies were conducted in CD1 mice (an outbred strain of immunocompetent mice commonly used for pharmacokinetic and biodistribution studies) for 60 min. The results, which include summed PET images (0–60 min), whole-brain time-activity curves (TACs), and area under the curve (AUC) for both radioligands, are depicted in Figures and . At baseline, [^18F]3 rapidly crossed the BBB following intravenous injection, reaching peak whole-brain uptake with a standardized uptake value (SUV) value of 2.4 at 2.3 min. This was followed by a gradual washout and reached a SUV of 1.87 by 60 min. To evaluate the binding characteristics of [^18F]3, elective H3R antagonists with distinct structural scaffolds, GSK189254, enerisant, and cipralisant, were used as blocking agents. […] Quantification of specific tracer binding was performed using volume of distribution (V T) values, derived from compartmental modeling and an image-derived input function (IDIF). […] While these findings support the utility of [^18F]3 for in vivo studies, we acknowledge the inherent limitations of IDIF, including the lack of metabolite correction and potential inaccuracies in capturing early phase kinetics.
PET imaging was conducted following previously reported methods. CD1 mice (5–6 weeks) were anesthetized with 1.5% (v/v) isoflurane during the scan. A dose of 3.0 MBq of [^18F]3 or [^18F]4 was intravenously injected into the tail vein, and a dynamic scan was acquiring using a PET scanner (MOLECUBES, beta-cube) for 60 min. In the blocking studies, GSK189254 (3 mg/kg) in 0.1 mL of saline containing 5% ethanol and 5% Tween-80 was preinjected for 10 min prior to the injection of PET radioligands. The results were reconstructed and analyzed by PMOD 4.3 software.
Quantification of specific tracer binding was performed using volume of distribution (VT) values, derived from compartmental modeling and an image-derived input […]
significant reduction in H3R-rich brain regions such as the cortex and striatum under blocking conditions with GSK189254, enerisant, and cipralisant, confirming the specificity of [18F]3 binding (Table S1).
Table S1. Estimation of V T values by Logan analysis in mice with [ 18F]3 at baseline, GSK189254-blocking (3 mg/kg), enerisant-blocking (3 mg/kg), and cipralisant-blocking (3 mg/kg) conditions.
Group Baseline GSK189254 Enerisant Cipralisant blocking blocking blocking

[2] = Ex vivo radiometabolite analysis in brain and plasma; conditions: CD1 mice, 30 min postinjection
Procedure: Next, ex vivo stability in the brain and plasma of CD1 mice was analyzed by radio-HPLC (Figure ). At 30 min postinjection, the parent fraction of [^18F]3 in the brain was determined to be 96%, indicating excellent in vivo metabolic stability. In the blood, 31% of the radioactivity remained intact.
A dose of 15 MBq of [^18F]3 in 0.1 mL saline was intravenously injected into the tail vein of CD1 mice (5–6 weeks). The mice were sacrificed at 30 min postinjection, and the mice brain and blood were quickly collected and homogenized with cold acetonitrile. […] The radioactivity for each fraction was measured using a γ counter (PerkinElmer Wizard). Data analysis was performed by GraphPad Prism 8.0, and the percentage of [^18F]3 relative to total radioactivity (corrected for decay) was calculated as (peak area for [^18F]3 /total peak area) × 100%.

[3] = mice pretreated with GSK189254 (3 mg/kg)

- parent compound remaining intact in serum [1]: over 95%
- whole-brain signal reduction based on AUC, GSK189254 blocking (H3R; GSK189254 3 mg/kg, 0–60 min): 32.5%
- V T, cerebellum (H3R; GSK189254 blocking 3 mg/kg): 3.85 ± 0.61
- V T, cortex (H3R; GSK189254 blocking 3 mg/kg): 2.17 ± 0.08
- V T, hippocampus (H3R; GSK189254 blocking 3 mg/kg): 3.77 ± 0.47
- V T, striatum (H3R; GSK189254 blocking 3 mg/kg): 2.91 ± 0.05
- V T, thalamus (H3R; GSK189254 blocking 3 mg/kg): 3.90 ± 0.90
- V T, whole brain (H3R; GSK189254 blocking 3 mg/kg): 3.40 ± 0.44
- V T, cerebellum (H3R; baseline): 5.59 ± 0.37
- V T, cortex (H3R; baseline): 4.82 ± 0.09
- V T, hippocampus (H3R; baseline): 5.80 ± 0.05
- V T, striatum (H3R; baseline): 5.64 ± 0.02
- V T, thalamus (H3R; baseline): 6.71 ± 0.05
- V T, whole brain (H3R; baseline): 5.29 ± 0.52
- V T, cerebellum (H3R; cipralisant blocking 3 mg/kg): 2.94 ± 0.33
- V T, cortex (H3R; cipralisant blocking 3 mg/kg): 2.38 ± 0.34
- V T, hippocampus (H3R; cipralisant blocking 3 mg/kg): 2.61 ± 0.32
- V T, striatum (H3R; cipralisant blocking 3 mg/kg): 2.67 ± 0.33
- V T, thalamus (H3R; cipralisant blocking 3 mg/kg): 2.78 ± 0.40
- V T, whole brain (H3R; cipralisant blocking 3 mg/kg): 2.61 ± 0.30
- V T, cerebellum (H3R; enerisant blocking 3 mg/kg): 3.73 ± 0.16
- V T, cortex (H3R; enerisant blocking 3 mg/kg): 3.18 ± 0.12
- V T, hippocampus (H3R; enerisant blocking 3 mg/kg): 3.84 ± 0.19
- V T, striatum (H3R; enerisant blocking 3 mg/kg): 3.48 ± 0.27
- V T, thalamus (H3R; enerisant blocking 3 mg/kg): 4.11 ± 0.26
- V T, whole brain (H3R; enerisant blocking 3 mg/kg): 3.58 ± 0.18
- time of peak whole-brain uptake (H3R; baseline, CD1 mice): 2.3 min
- whole-brain uptake at 60 min (H3R; baseline, CD1 mice): 1.87 SUV
- peak whole-brain uptake (H3R; baseline, intravenous injection, CD1 mice): 2.4 SUV
- whole-brain AUC reduction, cipralisant blocking (H3R; cipralisant 3 mg/kg, 0–60 min): 38.4%
- whole-brain AUC reduction, enerisant blocking (H3R; enerisant 3 mg/kg, 0–60 min): 35.6%
- brain radioactivity at 60 min (H3R; [3]): 1.27 SUV
- peak brain radioactivity (H3R; [3]): 1.98 SUV
- time of peak brain radioactivity (H3R; [3]): 1.9 min
- parent fraction in the brain [2]: 96%
Compound: O=C([C@H]1C[C@@H]1c1ccc([18F])cc1)N1CCN(C2CCCC2)CC1 [[^18F]3]
